# In patent publication US12486267B2, “Imidazo[1,2-A]pyridine and [1,2,4]triazolo[1,5-A]pyridine derivatives as TLR9 inhibitors for the treatment of fibrosis” (BRISTOL-MYERS SQUIBB COMPANY, priority 2020, dated 2025):
# How the values were obtained:
# Assay type in all cases: cell-based
# human TLR7 = molecular target: T1, human TLR7 (Homo sapiens, UniProt Q9NYK1); experiment: TLR7 inhibition reporter assay (HEK-Blue cells, SEAP reporter); details: HEK-Blue cells overexpressing human TLR7; stimulated with gardiquimod 7.5 μM; 22 hour incubation; SEAP readout
# T1 sequence (Q9NYK1 27-1049): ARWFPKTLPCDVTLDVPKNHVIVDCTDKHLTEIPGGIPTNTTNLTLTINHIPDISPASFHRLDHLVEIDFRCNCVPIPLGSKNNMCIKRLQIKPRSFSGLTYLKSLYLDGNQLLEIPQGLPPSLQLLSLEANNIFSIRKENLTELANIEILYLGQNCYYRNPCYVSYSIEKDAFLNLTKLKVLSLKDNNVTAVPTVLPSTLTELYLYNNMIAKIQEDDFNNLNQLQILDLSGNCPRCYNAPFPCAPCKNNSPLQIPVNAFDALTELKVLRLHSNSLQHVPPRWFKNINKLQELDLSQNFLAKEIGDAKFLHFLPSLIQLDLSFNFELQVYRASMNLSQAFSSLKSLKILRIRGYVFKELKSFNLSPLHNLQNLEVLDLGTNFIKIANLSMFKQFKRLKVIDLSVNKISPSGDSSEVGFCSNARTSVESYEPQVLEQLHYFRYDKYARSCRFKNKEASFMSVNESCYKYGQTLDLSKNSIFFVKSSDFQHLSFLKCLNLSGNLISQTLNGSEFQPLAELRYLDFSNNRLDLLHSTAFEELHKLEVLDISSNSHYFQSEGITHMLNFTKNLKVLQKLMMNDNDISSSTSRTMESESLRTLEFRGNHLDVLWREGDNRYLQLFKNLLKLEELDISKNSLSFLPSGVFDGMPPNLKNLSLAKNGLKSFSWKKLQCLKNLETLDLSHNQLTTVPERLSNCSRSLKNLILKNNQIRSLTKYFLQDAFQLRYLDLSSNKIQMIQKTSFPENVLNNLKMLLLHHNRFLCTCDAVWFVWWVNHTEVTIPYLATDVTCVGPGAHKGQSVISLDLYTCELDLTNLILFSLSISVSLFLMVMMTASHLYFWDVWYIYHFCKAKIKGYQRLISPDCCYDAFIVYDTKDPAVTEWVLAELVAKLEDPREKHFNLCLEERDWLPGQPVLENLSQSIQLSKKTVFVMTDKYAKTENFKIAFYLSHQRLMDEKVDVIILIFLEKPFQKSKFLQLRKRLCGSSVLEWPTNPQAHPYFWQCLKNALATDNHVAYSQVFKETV
# Method in brief: (§1)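 HEK-Blue cells with an NF-κB/AP-1-driven SEAP reporter were pre-treated 30 min at room temperature with compound (0.05 nM–50 μM), then stimulated with gardiquimod 7.5 μM (TLR7), R848 15.9 μM (TLR8) or ODN2006 5 nM (TLR9). After 22 h at 37 °C, SEAP was read; % inhibition was referenced to agonist+DMSO and known-inhibitor wells.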
# human TLR8 = molecular target: T2, human TLR8 (Homo sapiens, UniProt Q9NR97); experiment: TLR8 inhibition reporter assay (HEK-Blue cells, SEAP reporter); details: HEK-Blue cells overexpressing human TLR8; stimulated with R848 15.9 μM; 22 hour incubation; SEAP readout
# T2 sequence (Q9NR97 27-1041): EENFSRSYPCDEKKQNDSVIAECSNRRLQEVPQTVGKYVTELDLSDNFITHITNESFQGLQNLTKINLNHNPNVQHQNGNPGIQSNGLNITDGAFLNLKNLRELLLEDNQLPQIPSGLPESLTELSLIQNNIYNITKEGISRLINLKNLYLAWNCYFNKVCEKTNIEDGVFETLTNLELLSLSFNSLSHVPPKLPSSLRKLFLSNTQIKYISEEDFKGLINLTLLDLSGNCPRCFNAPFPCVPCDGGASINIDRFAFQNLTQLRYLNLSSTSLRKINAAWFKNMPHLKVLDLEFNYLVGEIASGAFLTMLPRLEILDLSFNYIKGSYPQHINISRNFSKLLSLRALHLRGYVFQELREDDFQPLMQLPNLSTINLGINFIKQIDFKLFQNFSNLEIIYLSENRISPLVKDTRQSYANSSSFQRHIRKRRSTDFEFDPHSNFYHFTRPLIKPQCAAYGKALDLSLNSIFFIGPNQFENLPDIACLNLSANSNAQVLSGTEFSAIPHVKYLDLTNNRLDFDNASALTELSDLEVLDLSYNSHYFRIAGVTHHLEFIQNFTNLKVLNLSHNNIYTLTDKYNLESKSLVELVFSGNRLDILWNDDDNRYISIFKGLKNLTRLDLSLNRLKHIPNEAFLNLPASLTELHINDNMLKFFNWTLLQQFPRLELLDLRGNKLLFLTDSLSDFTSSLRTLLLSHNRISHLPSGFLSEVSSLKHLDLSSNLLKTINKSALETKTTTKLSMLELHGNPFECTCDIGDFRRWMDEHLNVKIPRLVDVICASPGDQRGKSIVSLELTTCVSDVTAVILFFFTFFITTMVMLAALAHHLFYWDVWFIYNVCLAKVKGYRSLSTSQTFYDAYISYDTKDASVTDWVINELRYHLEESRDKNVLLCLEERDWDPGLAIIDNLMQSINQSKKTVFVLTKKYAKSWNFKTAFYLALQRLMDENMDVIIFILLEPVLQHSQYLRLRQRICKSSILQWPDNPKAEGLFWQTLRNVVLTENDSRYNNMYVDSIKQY
# Method in brief: as §1
# human TLR9 = molecular target: T3, human TLR9 (Homo sapiens, UniProt Q9NR96); experiment: TLR9 inhibition reporter assay (HEK-Blue cells, SEAP reporter); details: HEK-Blue cells overexpressing human TLR9; stimulated with ODN2006 5 nM; 22 hour incubation; SEAP readout
# T3 sequence (Q9NR96 26-1032): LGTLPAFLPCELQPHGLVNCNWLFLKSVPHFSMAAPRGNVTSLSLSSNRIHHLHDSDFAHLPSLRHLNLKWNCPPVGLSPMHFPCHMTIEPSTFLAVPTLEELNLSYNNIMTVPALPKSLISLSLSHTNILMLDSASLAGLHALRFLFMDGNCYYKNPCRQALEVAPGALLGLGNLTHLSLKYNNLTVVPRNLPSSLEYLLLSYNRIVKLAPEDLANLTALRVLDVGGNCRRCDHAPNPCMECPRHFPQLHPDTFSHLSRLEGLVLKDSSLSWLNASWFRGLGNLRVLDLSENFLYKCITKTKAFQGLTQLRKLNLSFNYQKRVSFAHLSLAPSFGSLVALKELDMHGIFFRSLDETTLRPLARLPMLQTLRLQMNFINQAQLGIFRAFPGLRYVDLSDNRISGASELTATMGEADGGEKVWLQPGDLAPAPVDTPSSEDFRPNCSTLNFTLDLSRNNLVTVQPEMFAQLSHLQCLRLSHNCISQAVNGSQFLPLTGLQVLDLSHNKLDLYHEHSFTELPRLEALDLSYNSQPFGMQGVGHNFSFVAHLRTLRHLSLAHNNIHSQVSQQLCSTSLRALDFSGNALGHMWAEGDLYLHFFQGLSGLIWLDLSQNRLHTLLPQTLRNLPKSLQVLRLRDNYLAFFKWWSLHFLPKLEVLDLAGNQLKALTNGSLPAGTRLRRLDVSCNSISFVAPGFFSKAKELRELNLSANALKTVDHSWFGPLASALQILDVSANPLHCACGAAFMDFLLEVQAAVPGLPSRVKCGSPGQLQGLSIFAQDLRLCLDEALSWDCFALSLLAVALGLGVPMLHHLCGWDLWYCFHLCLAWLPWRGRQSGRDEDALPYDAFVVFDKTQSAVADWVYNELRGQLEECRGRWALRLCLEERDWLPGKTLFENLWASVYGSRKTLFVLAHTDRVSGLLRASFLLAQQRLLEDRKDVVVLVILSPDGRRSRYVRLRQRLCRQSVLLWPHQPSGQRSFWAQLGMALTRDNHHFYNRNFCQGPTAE
# Method in brief: as §1
SMILES,IC50 (human TLR7) [nM],IC50 (human TLR8) [nM],IC50 (human TLR9) [nM]
"COc1ccc(-c2cn3cc(C4CCN(C5CCN(CC(C)C)CC5)CC4)cc(C)c3n2)cc1F [Example 6, 2-(3-fluoro-4-methoxyphenyl)-6-(1′-isobutyl-[1,4′-bipiperidin]-4-yl)-8-methylimidazo[1,2-a]pyridine]",16000,> 50000,252
"Cc1cc(C2CCN(C3CCN(C4CC4)CC3)CC2)cn2cc(-c3ccc(S(C)(=O)=O)cc3)nc12 [Example 7, 6-(1′-cyclopropyl-[1,4′-bipiperidin]-4-yl)-8-methyl-2-(4-(methylsulfonyl)phenyl) imidazo[1,2-a]pyridine]",7800,> 50000,132
"Cc1cc(C2CCN(C3CCN(C(C)C)CC3)CC2)cn2cc(-c3ccc(S(C)(=O)=O)cc3)nc12 [Example 8, 6-(1′-isopropyl-[1,4′-bipiperidin]-4-yl)-8-methyl-2-(4-(methylsulfonyl)phenyl) imidazo[1,2-a]pyridine]",2300,> 50000,21
"Cc1cc(C2CCN(C3CCN(CC(C)C)CC3)CC2)cn2cc(-c3ccc(S(C)(=O)=O)cc3)nc12 [Example 9, 6-(1′-isobutyl-[1,4′-bipiperidin]-4-yl)-8-methyl-2-(4-(methylsulfonyl)phenyl) imidazo[1,2-a]pyridine]",3300,> 50000,42
"COc1ccc(-c2cn3cc(C4CCN(C5CCN(C6CC6)CC5)CC4)ccc3n2)cc1OC [Example 10, 6-(1′-cyclopropyl-[1,4′-bipiperidin]-4-yl)-2-(3,4-dimethoxyphenyl)imidazo[1,2-a]pyridine]",5200,> 50000,129
"COc1ccc(-c2cn3cc(C4CCN(C5CCN(CC(C)C)CC5)CC4)ccc3n2)cc1OC [Example 12, 2-(3,4-dimethoxyphenyl)-6-(1′-isobutyl-[1,4′-bipiperidin]-4-yl)imidazo[1,2-a]pyridine]",2700,> 50000,122

# Now from value to molecule:
IC50 (human TLR7) [nM],IC50 (human TLR8) [nM],IC50 (human TLR9) [nM],SMILES
5600,> 50000,77,"COc1ccc(-c2cn3cc(C4CCN(C5CCN(C(C)C)CC5)CC4)ccc3n2)cc1OC [Example 11, 2-(3,4-dimethoxyphenyl)-6-(1′-isopropyl-[1,4′-bipiperidin]-4-yl)imidazo[1,2-a]pyridine]"
47000,> 50000,163,"COc1ccc(-c2cn3cc(C4CCN(C5CC6(C5)CN(C(C)C)C6)CC4)cc(C)c3n2)cc1OC [Example 13, 2-(3,4-dimethoxyphenyl)-6-(1-(2-isopropyl-2-azaspiro[3.3]heptan-6-yl)piperidin-4-yl)-8-methylimidazo[1,2-a]pyridine]"
> 50000,> 50000,68,"COc1ccc(-c2cn3cc(C4CCN(C5CC6(C5)CN(C5CCC5)C6)CC4)cc(C)c3n2)cc1OC [Example 14, 6-(1-(2-cyclobutyl-2-azaspiro[3.3]heptan-6-yl)piperidin-4-yl)-2-(3,4-dimethoxyphenyl)-8-methylimidazo[1,2-a]pyridine]"
46000,> 50000,47,"COc1ccc(-c2cn3cc(C4CCN(C5CC6(C5)CN(CC(C)C)C6)CC4)cc(C)c3n2)cc1OC [Example 15, 2-(3,4-dimethoxyphenyl)-6-(1-(2-isobutyl-2-azaspiro[3.3]heptan-6-yl)piperidin-4-yl)-8-methylimidazo[1,2-a]pyridine]"
2000,> 50000,14,"COc1ccc(-c2cn3cc(C4CCN(C5CC6(C5)CN(CC5CC5)C6)CC4)cc(C)c3n2)cc1OC [Example 16, 6-(1-(2-(cyclopropylmethyl)-2-azaspiro[3.3]heptan-6-yl)piperidin-4-yl)-2-(3,4-dimethoxyphenyl)-8-methylimidazo[1,2-a]pyridine]"
